In paper PMC10301432, “Antiplasmodial, Trypanocidal, and Genotoxicity In Vitro Assessment of New Hybrid α,α-Difluorophenylacetamide-statin Derivatives” (Pharmaceuticals, 2023):
“Also recorded” adds a separate entry of the source. Like-named read-outs stand apart in the source and are kept apart here.

How the values were obtained:
[1] = test system: Salmonella enterica serovar Typhimurium TA102
CHO-K1 cells = type: cell-based, Chinese Hamster
Description: (§1) Fresh HepG2 and CHO-K1 cells were seeded at the density of 1 × 10^5 cells/mL into 24-well plates (1 mL/per well). The compounds 13 (a–d) were then added to the medium to final concentrations of 500, 1000 and 2000 µM and incubation continued for 3 h or 24 h. DMSO 10% was used as the negative control, and, BaP (80 µM) for HepG2 and MMC (5 µM) for CHO-K1 were the positive controls. After exposure to the compounds, the cells were incubated for more than 24 h under growth conditions before quantification of the micronuclei and cytotoxicity. The cytogenetic studies were carried out in triplicate as described previously (see [51]). In order to determine the mitotic index and the number of cells with micronuclei, the medium was replaced by a cold methanol-glacial acetic acid (3:1) fixative for 30 min, and the cells then rinsed with distilled water for 2 min and air dried. The fixed cells were stained with 4,6-diamidino-2-phenylindole (DAPI) ([…]) dissolved in McIlvaine buffer (0.1 M citric acid plus 0.2 M Na2HPO4, pH 7.0) for 60 min, washed with McIlvaine buffer for 5 min, briefly rinsed with distilled water and mounted in glycerol. To determine the mitotic index and the number of cells with micronuclei, 1000 cells per well (3000 cells per concentration) were analyzed under a fluorescence microscope. The results for micronuclei were presented as the percentage of cells containing micronuclei in the 3000 cells/concentration group analyzed. Cells that glowed brightly and had homogenous nuclei were considered as having normal phenotypic morphology. Apoptotic nuclei were identified by the condensed chromatin at the periphery of the nuclear membrane or by fragmented nuclear body morphology. Necrotic cells presented chromatin forms with irregularly shaped aggregates, a pyknotic nucleus (shrunken and darkly stained) and cell membrane disruption, with cellular debris spilled into the extracellular milieu. Once again, 3000 cells were counted and the percentage of viable cells was evaluated, discounting apoptotic and necrotic cells. Statistical differences between the groups were analyzed by two-way ANOVA (p < 0.01) and Tukey’s post hoc test.

[2] = test system: CHO-K1 and HepG2 cell lineages; type: cell-based
Description: as §1, with “Necrotic cells presented chromatin forms with irregularly shaped aggregates, a pyknotic nucleus (shrunken and darkly stained) and cell membrane disruption, with cellular debris spilled into the extracellular milieu.” left out

[3] = test system: trypomastigote forms of T. cruzi (Y strain); assay: Trypanocidal activity on bloodstream trypomastigotes; type: cell-based, Trypanosoma cruzi; conditions: Trypanosoma cruzi; bloodstream trypomastigotes, Y strain; 24 h at 37 °C
Description: Bloodstream trypomastigote forms (BT) of the Y strain were obtained from infected albino Swiss mice at the peak of parasitemia, isolated by differential centrifugation and resuspended in DMEM to a parasite concentration of 10^7 cells/mL in the presence of 10% of mouse blood. This suspension (100 µL) was added in the same volume of 13 (a–d) and 14 (a–d) previously prepared at twice the desired final concentrations.

[4] = test system: Salmonella enterica serovar Typhimurium TA100; assay: Salmonella/microsome assay, TA100
[5] = test system: S. typhimurium TA97, TA98, TA100, TA102 and TA104 strains; assay: Salmonella/microsome assay, overall outcome; conditions: all strains, −S9 and +S9; summarized outcome
Description: The mutagenicity reverse mutation test was carried out to investigate the potential of 13 (a–d) to induce genetic mutation in S. typhimurium TA97, TA98, TA100, TA102 and TA104 strains. The test was carried out according to the pre-incubation method, both in the absence and presence of a metabolic activation system (4% S9 mix, Aroclor-pre-induced, from Moltox Inc., Boone, NC, USA). DMSO 10% served as the negative control while known mutagens were used as the positive control substances. […] A dose-finding test was carried out with and without the metabolic activation system (S9 mix) for each tester strain.
For the assays without metabolic activation, 0.5 mL of 0.1 mol/L sodium-phosphate buffer (pH 7.4) was added, and for the assays in the presence of metabolic activation, 0.5 mL S9 mix was mixed with 0.1 mL culture medium (2 × 10^8 cells/mL) plus 0.1 mL of each compound solutions. The mixtures were incubated in a shaker at 37 °C (pre-incubation). After 30 min pre-incubation under light protection, the mixture was added to and mixed with 2 mL top agar containing 0.05 mmol/L L-histidine and D-biotin for the S. typhimurium strains. Each of these was then spread on a minimum glucose agar plate. After the top agar solidified, the plates were incubated at 37 °C for 60–72 h. Each tester strain was assayed in triplicate, and the number of revertant colonies was counted for each tester strain and treatment group [58].

HepG2 cells = assay: In vitro micronuclei assay, HepG2; type: cell-based, human; conditions: HepG2; 3 h of exposure
Description: as §1

[6] = test system: P. falciparum parasites (W2 clone) chloroquine-resistant; assay: Antiplasmodial activity, anti-HRPII assay; type: cell-based, Plasmodium falciparum; conditions: for SI: LC50 (HepG2)/EC50 (P. falciparum); for EC50: P. falciparum W2 clone, 24 h at 37 °C, read-out: EC50; for Antiplasmodial Activity: summarized outcome
Source text: P. falciparum W2 clone was maintained in continuous culture as previously described. […] Prior to testing, the ring-stage parasites were synchronized using sorbitol.
The test quantification was read at 450 nm on a spectrophotometer (SpectraMax340PC384, Molecular Devices Sunnyvale, CA, USA), and the drug activity was expressed as the half-maximal inhibitory concentration (EC50) compared to the drug-free controls using the curve-fitting software Origin 8.0 (OriginLab Corporation, Northampton, MA, USA).

[7] = Salmonella/microsome assay, TA104; conditions: Salmonella enterica serovar Typhimurium
Description: (§2) Salmonella enterica serovar Typhimurium (S. typhimurium) strains TA97, TA98, TA100, TA104 and TA102 from the authors’ stock were used as described in the mutagenicity assay.
(§3) To determine the cytotoxic effects, after 30 min pre-incubation, the assay mixtures were diluted in 0.9% NaCl (w/v) to obtain a suspension containing 2 × 10^2 cells/mL. […] The plates were then incubated at 37 °C for 24 h and the colonies counted. All the experiments were conducted in triplicate and were repeated at least twice. Statistical differences between the groups were analyzed by a two-way ANOVA (p < 0.05) and Tukey’s post hoc test.

[8] = test system: Salmonella enterica serovar Typhimurium TA104; assay: Salmonella/microsome assay, TA104
Description: as §2, §3

in vitro = type: cell-based; conditions: mouse
Description: Cardiac cell cultures were incubated for 24 h at 37 °C with different concentrations of the compounds (up to 200 µM) diluted in DMEM (without phenol red). Their morphology and spontaneous contractibility were evaluated by light microscopy and then the cellular viability was determined by the PrestoBlue® assay. For this colorimetric bioassay, PrestoBlue® (Invitrogen, Waltham, MA, USA) was added to each well (using a 10:1 medium/dye), the plate was further incubated for 24 h followed by optical density (OD) measurement performed at 570 and 600 nm, as recommended by the manufacturer.

[9] = Plasmodium falciparum, W2, 24 h
[10] = S. typhimurium TA104 with S9 mix, LC50 (bacterial cytotoxicity) TA104, presence of S9 mix

CC(=O)Nc1ccc(C)cc1C(F)(F)C(=O)NCC[C@@H]1C[C@H](CC(=O)OC(C)(C)C)OC(C)(C)O1 [Compound 13b, tert-Butyl 2-((4R,6R)-6-(2-(2-(2-acetamido-5-methylphenyl)-2,2-difluoroacetamido)ethyl)-2,2-dimethyl-1,3-dioxan-4-yl)acetate]
revertant His+ colonies TA102 ([1]; +S9, 3 µM): 365 ± 37 | revertant His+ colonies TA102 ([1]; +S9, 15 µM): 386 ± 42 | revertant His+ colonies TA102 ([1]; +S9, 30 µM): 403 ± 19 | revertant His+ colonies TA102 ([1]; +S9, 150 µM): 396 ± 31 | revertant His+ colonies TA102 ([1]; +S9, 300 µM): 372 ± 40 | revertant His+ colonies TA102 ([1]; +S9, 1500 µM): 399 ± 18 | revertant His+ colonies TA102 ([1]; −S9, 3 µM): 388 ± 20 | revertant His+ colonies TA102 ([1]; −S9, 15 µM): 393 ± 18 | revertant His+ colonies TA102 ([1]; −S9, 30 µM): 423 ± 11 | revertant His+ colonies TA102 ([1]; −S9, 150 µM): 503 ± 23 | revertant His+ colonies TA102 ([1]; −S9, 300 µM): 543 ± 39 | revertant His+ colonies TA102 ([1]; −S9, 1500 µM): 560 ± 41 | mitotic index (CHO-K1 cells): did not affect the mitotic index | Mammalian Cell Genotoxicity [2]: Yes | EC50 [3]: > 500 µM | revertant His+ colonies TA100 ([4]; +S9, 3 µM): 179 ± 38 | revertant His+ colonies TA100 ([4]; +S9, 15 µM): 188 ± 23 | revertant His+ colonies TA100 ([4]; +S9, 30 µM): 228 ± 46 | revertant His+ colonies TA100 ([4]; +S9, 150 µM): 260 ± 32 | revertant His+ colonies TA100 ([4]; +S9, 300 µM): 306 ± 60 | revertant His+ colonies TA100 ([4]; +S9, 1500 µM): 333 ± 45 | revertant His+ colonies TA100 ([4]; −S9, 3 µM): 145 ± 11 | revertant His+ colonies TA100 ([4]; −S9, 15 µM): 146 ± 1 | revertant His+ colonies TA100 ([4]; −S9, 30 µM): 145 ± 17 | revertant His+ colonies TA100 ([4]; −S9, 150 µM): 143 ± 40 | revertant His+ colonies TA100 ([4]; −S9, 300 µM): 144 ± 8 | revertant His+ colonies TA100 ([4]; −S9, 1500 µM): 178 ± 10 | Bacterial Mutagenicity [5]: not mutagenic and no mutagenic potential and No | cytotoxicity (survival rate) in micronuclei assay (HepG2 cells): statistical enhancement; also recorded: cytotoxic | micronuclei formation (genotoxicity) (HepG2 cells): statistical enhancement; also recorded: genotoxic; also recorded: only increased micronucleation in HepG2 cells at >2000 µM | SI [6]: >70 | EC50 [6]: 14.3 ± 0.2 µM | EC50 [6, 9]: < 14 µM | Antiplasmodial Activity [6]: Yes | CC50 at 30 min [7, 10]: > 1.5 mM | CC50 at 30 min ([7]; S. typhimurium TA104 without S9 mix, pH 7.4, LC50 (bacterial cytotoxicity) TA104, absence of S9 mix): > 1.5 mM | revertant His+ colonies TA104 ([8]; +S9, 3 µM): 355 ± 12 | revertant His+ colonies TA104 ([8]; +S9, 15 µM): 356 ± 14 | revertant His+ colonies TA104 ([8]; +S9, 30 µM): 421 ± 67 | revertant His+ colonies TA104 ([8]; +S9, 150 µM): 447 ± 45 | revertant His+ colonies TA104 ([8]; +S9, 300 µM): 449 ± 18 | revertant His+ colonies TA104 ([8]; +S9, 1500 µM): 510 ± 13 | revertant His+ colonies TA104 ([8]; −S9, 3 µM): 210 ± 11 | revertant His+ colonies TA104 ([8]; −S9, 15 µM): 267 ± 15 | revertant His+ colonies TA104 ([8]; −S9, 150 µM): 326 ± 13 | revertant His+ colonies TA104 ([8]; −S9, 300 µM): 350 ± 22 | revertant His+ colonies TA104 ([8]; −S9, 1500 µM): 400 ± 11 | CC50 at 96 h (in vitro): 114 ± 35.4 µM

CC(=O)Nc1ccccc1C(F)(F)C(=O)NCC[C@@H]1C[C@H](CC(=O)OC(C)(C)C)OC(C)(C)O1 [Compound 13a, tert-Butyl 2-((4R,6R)-6-(2-(2-(2-acetamidophenyl)-2,2-difluoroacetamido)ethyl)-2,2-dimethyl-1,3-dioxan-4-yl)acetate]
revertant His+ colonies TA102 ([1]; +S9, 3 µM): 384 ± 32 | revertant His+ colonies TA102 ([1]; +S9, 15 µM): 399 ± 32 | revertant His+ colonies TA102 ([1]; +S9, 30 µM): 407 ± 21 | revertant His+ colonies TA102 ([1]; +S9, 150 µM): 411 ± 46 | revertant His+ colonies TA102 ([1]; +S9, 300 µM): 448 ± 52 | revertant His+ colonies TA102 ([1]; +S9, 1500 µM): 501 ± 20 | revertant His+ colonies TA102 ([1]; −S9, 3 µM): 458 ± 19 | revertant His+ colonies TA102 ([1]; −S9, 15 µM): 435 ± 22 | revertant His+ colonies TA102 ([1]; −S9, 30 µM): 433 ± 7 | revertant His+ colonies TA102 ([1]; −S9, 150 µM): 380 ± 12 | revertant His+ colonies TA102 ([1]; −S9, 300 µM): 345 ± 48 | revertant His+ colonies TA102 ([1]; −S9, 1500 µM): Cytotoxic | micronuclei formation (genotoxicity) (CHO-K1 cells): genotoxic | Mammalian Cell Genotoxicity [2]: Yes | EC50 [3]: > 500 µM | revertant His+ colonies TA100 ([4]; +S9, 3 µM): 211 ± 37 | revertant His+ colonies TA100 ([4]; +S9, 15 µM): 223 ± 15 | revertant His+ colonies TA100 ([4]; +S9, 30 µM): 241 ± 36 | revertant His+ colonies TA100 ([4]; +S9, 150 µM): 244 ± 14 | revertant His+ colonies TA100 ([4]; +S9, 300 µM): 270 ± 45 | revertant His+ colonies TA100 ([4]; +S9, 1500 µM): 290 ± 31 | revertant His+ colonies TA100 ([4]; −S9, 3 µM): 117 ± 43 | revertant His+ colonies TA100 ([4]; −S9, 15 µM): 136 ± 13 | revertant His+ colonies TA100 ([4]; −S9, 30 µM): 139 ± 13 | revertant His+ colonies TA100 ([4]; −S9, 150 µM): 142 ± 5 | revertant His+ colonies TA100 ([4]; −S9, 300 µM): 162 ± 37 | revertant His+ colonies TA100 ([4]; −S9, 1500 µM): 179 ± 34 | Bacterial Mutagenicity [5]: Yes | cytotoxicity (survival rate) in micronuclei assay (HepG2 cells): significant cytotoxic effects upon 1000 µM | micronuclei formation (genotoxicity) (HepG2 cells): did not induce micronuclei formation; also recorded: non-genotoxic | SI [6]: Inactive | EC50 [6, 9]: > 62 µM | Antiplasmodial Activity [6]: No | CC50 at 30 min [7, 10]: 1.28 ± 0.0211 mM | revertant His+ colonies TA104 ([8]; +S9, 3 µM): 390 ± 49 | revertant His+ colonies TA104 ([8]; +S9, 15 µM): 417 ± 15 | revertant His+ colonies TA104 ([8]; +S9, 30 µM): 467 ± 19 | revertant His+ colonies TA104 ([8]; +S9, 150 µM): 330 ± 9 | revertant His+ colonies TA104 ([8]; +S9, 300 µM): 268 ± 37 | revertant His+ colonies TA104 ([8]; +S9, 1500 µM): Cytotoxic | revertant His+ colonies TA104 ([8]; −S9, 3 µM): 264 ± 27 | revertant His+ colonies TA104 ([8]; −S9, 15 µM): 307 ± 18 | revertant His+ colonies TA104 ([8]; −S9, 30 µM): 314 ± 26 | revertant His+ colonies TA104 ([8]; −S9, 150 µM): 315 ± 36 | revertant His+ colonies TA104 ([8]; −S9, 300 µM): 316 ± 33 | revertant His+ colonies TA104 ([8]; −S9, 1500 µM): 350 ± 21 | CC50 at 96 h (in vitro): 112 ± 28.3 µM
